Patent publication US20250129069A1, “TRIAZOLO WRN INHIBITORS” (Nimbus Wadjet, Inc., priority 2023, published 2025)
Read-outs that look alike come from different tables or passages of the source.

Legend:
[1] = molecular target: human Werner helicase (WRN, amino acids 517-1235 with L1074F point mutation) (Homo sapiens (Human), UniProt Q14191, L1074F); assay: WRN (BV08) ADP-Glo assay; assay type: biochemical; settings: human WRN (aa 517-1235, L1074F), read-out: ADP-Glo_hWRN_IC50
Procedure, shortened: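 Untagged WRN 517-1235 (L1074F), Sf9/baculovirus-expressed, 0.15 nM, preincubated 15 min with compound, then 5 μM ATP and 0.1 nM annealed DNA duplex added; 60 min at 25 °C in Bicine pH 7.5, 1 mM MgCl2, 1% DMSO. ADP-Glo luminescence; % inhibition vs DMSO and 20 μM NSC-617145 controls, four-parameter IC50 fit.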

[2] = test system: p21 induction in HCT 116 cells; assay: p21 induction in cells (In-Cell Western, p21/GAPDH ratio); assay type: cell-based; settings: 24 h compound incubation, read-out: p21_EC50
Procedure, shortened: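 HCT 116 cells treated 24 h at 37° C with 11-point, 2-fold dilutions typically from 10 μM, in duplicate. Fixed cells co-stained for p21 (800 nm) and GAPDH (700 nm) by In-Cell Western. p21/GAPDH ratio normalised between DMSO and reference WRN inhibitor controls, and EC50 obtained by nonlinear regression.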

Chain of human Werner helicase (WRN, amino acids 517-1235 with L1074F point mutation) (Q14191 other isoform, or with tags, fused parts or gaps L1074F (already in the parent)): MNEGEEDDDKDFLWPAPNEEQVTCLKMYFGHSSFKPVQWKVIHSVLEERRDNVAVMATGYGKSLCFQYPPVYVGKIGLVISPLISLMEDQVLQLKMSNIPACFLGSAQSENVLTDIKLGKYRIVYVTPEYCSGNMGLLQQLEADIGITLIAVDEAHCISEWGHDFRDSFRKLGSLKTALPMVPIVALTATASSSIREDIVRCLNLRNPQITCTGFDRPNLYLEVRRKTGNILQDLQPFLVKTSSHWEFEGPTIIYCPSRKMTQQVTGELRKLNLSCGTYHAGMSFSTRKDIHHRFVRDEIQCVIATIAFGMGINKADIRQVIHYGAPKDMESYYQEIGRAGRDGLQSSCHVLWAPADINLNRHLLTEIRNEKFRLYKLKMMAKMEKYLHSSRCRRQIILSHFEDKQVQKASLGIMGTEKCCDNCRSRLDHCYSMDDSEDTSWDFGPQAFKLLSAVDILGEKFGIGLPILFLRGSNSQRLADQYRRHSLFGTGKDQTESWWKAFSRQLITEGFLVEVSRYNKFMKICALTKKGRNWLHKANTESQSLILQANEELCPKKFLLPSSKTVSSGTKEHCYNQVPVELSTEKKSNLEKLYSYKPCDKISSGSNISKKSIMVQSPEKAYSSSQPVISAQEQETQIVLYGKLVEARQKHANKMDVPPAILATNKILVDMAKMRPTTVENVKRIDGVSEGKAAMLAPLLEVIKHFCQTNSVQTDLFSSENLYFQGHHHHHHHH

Structure (SMILES)	IC50 [1] [nM]	EC50 ([2]; Homo sapiens) [nM]	EC50 [2] [nM]
CCc1c(N2CCN(C(=O)c3ncnc(C)c3O)[C@H]3CC[C@@H]32)c(=O)c2nn(-c3ccnc(OC)c3)nc2n1CC(=O)NC1CC2(CC(C)C2)C1 (stereo partly drawn) [Compound I-88, 2-{5-ethyl-6-[(1S,6S)-5-(5-hydroxy-6-methylpyrimidine-4-carbonyl)-2,5-diazabicyclo[4.2.0]octan-2-yl]-2-(2-methoxypyridin-4-yl)-7-oxo-2H,4H,7H-[1,2,3]triazolo[4,5-b]pyridin-4-yl}-N-{6-methylspiro[3.3]heptan-2-yl}acetamide]	5 to 50	500 to 2000	–
CCc1c(N2CCN(C(=O)c3ncnc(C)c3O)[C@H]3CC[C@@H]32)c(=O)c2nn(-c3ccnc(OC)c3)nc2n1CC(=O)NC12CC(C(F)(F)F)(C1)C2 [Compound I-11, 2-(5-ethyl-6-((1S,6S)-5-(5-hydroxy-6-methylpyrimidine-4-carbonyl)-2,5-diazabicyclo[4.2.0]octan-2-yl)-2-(2-methoxypyridin-4-yl)-7-oxo-2,7-dihydro-4H-[1,2,3]triazolo[4,5-b]pyridin-4-yl)-N-(3-(trifluoromethyl)bicyclo[1.1.1]pentan-1-yl)acetamide]	5 to 50	≤ 500	–
CCc1c(N2CCN(C(=O)c3c(OC(F)F)ncc(C)c3O)CC2)c(=O)c2nn(-c3ccnc(OC)c3)nc2n1CC(=O)NC12CC(C(C)C)(C1)C2 [Compound I-56, 2-(6-{4-[2-(difluoromethoxy)-4-hydroxy-5-methylpyridine-3-carbonyl]piperazin-1-yl}-5-ethyl-2-(2-methoxypyridin-4-yl)-7-oxo-2H,4H,7H-[1,2,3]triazolo[4,5-b]pyridin-4-yl)-N-[3-(propan-2-yl)bicyclo[1.1.1]pentan-1-yl]acetamide]	5 to 50	≤ 500	–
CCc1c(N2CCN(C(=O)c3c(O)ccc4ncoc34)[C@H]3CC[C@@H]32)c(=O)c2nn(-c3ccnc(OC)c3)nc2n1CC(=O)NC12CC(C(F)(F)F)(C1)C2 [Compound I-4, 2-(5-ethyl-6-((1S,6S)-5-(6-hydroxybenzo[d]oxazole-7-carbonyl)-2,5-diazabicyclo[4.2.0]octan-2-yl)-2-(2-methoxypyridin-4-yl)-7-oxo-2,7-dihydro-4H-[1,2,3]triazolo[4,5-b]pyridin-4-yl)-N-(3-(trifluoromethyl)bicyclo[1.1.1]pentan-1-yl)acetamide]	5 to 50	–	≤ 500
CCc1c(N2CCN(C(=O)c3ncnc(C)c3O)[C@H]3CC[C@@H]32)c(=O)c2nn(C3CC4(COC4)C3)nc2n1CC(=O)NC12CC(C(C)C)(C1)C2 [Compound I-160, 2-{5-ethyl-6-[(1S,6S)-5-(5-hydroxy-6-methylpyrimidine-4-carbonyl)-2,5-diazabicyclo[4.2.0]octan-2-yl]-2-{2-oxaspiro[3.3]heptan-6-yl}-7-oxo-2H,4H,7H-[1,2,3]triazolo[4,5-b]pyridin-4-yl}-N-[3-(propan-2-yl)bicyclo[1.1.1]pentan-1-yl]acetamide]	5 to 50	2000 to 5000	–
CCc1c(N2CCN(C(=O)c3cccc(N4CCN(C)CC4)c3OC)[C@H]3CC[C@@H]32)c(=O)c2nn(C3=CCOCC3)nc2n1CC(=O)NC12CC(C(C)C)(C1)C2 [Compound I-169, 2-[2-(3,6-dihydro-2H-pyran-4-yl)-5-ethyl-6-[(1S,6S)-5-[2-methoxy-3-(4-methylpiperazin-1-yl)benzoyl]-2,5-diazabicyclo[4.2.0]octan-2-yl]-7-oxo-2H,4H,7H-[1,2,3]triazolo[4,5-b]pyridin-4-yl]-N-[3-(propan-2-yl)bicyclo[1.1.1]pentan-1-yl]acetamide]	5 to 50	2000 to 5000	–
CCc1c(N2CCN(C(=O)c3ncnc(C)c3O)[C@H]3CC[C@@H]32)c(=O)c2nn(-c3ccnc(OC)c3)nc2n1CC(=O)NC1(C)CC2(CCC2)C1 [Compound I-87, 2-{5-ethyl-6-[(1S,6S)-5-(5-hydroxy-6-methylpyrimidine-4-carbonyl)-2,5-diazabicyclo[4.2.0]octan-2-yl]-2-(2-methoxypyridin-4-yl)-7-oxo-2H,4H,7H-[1,2,3]triazolo[4,5-b]pyridin-4-yl}-N-{2-methylspiro[3.3]heptan-2-yl}acetamide]	5 to 50	≤ 500	–
CCc1c(N2CCN(C(=O)c3ncnc(C)c3O)[C@H]3CC[C@@H]32)c(=O)c2nn(C3=CCOCC3)nc2n1CC(=O)NC12CC(C3CC3)(C1)C2 [Compound I-31, N-{3-cyclopropylbicyclo[1.1.1]pentan-1-yl}-2-[2-(3,6-dihydro-2H-pyran-4-yl)-5-ethyl-6-[(1S,6S)-5-(5-hydroxy-6-methylpyrimidine-4-carbonyl)-2,5-diazabicyclo[4.2.0]octan-2-yl]-7-oxo-2H,4H,7H-[1,2,3]triazolo[4,5-b]pyridin-4-yl]acetamide]	5 to 50	–	≤ 500
CCc1c(N2CCN(C(=O)c3cccc4c3OCCN4C)[C@H]3CC[C@@H]32)c(=O)c2nn(C3=CCOCC3)nc2n1CC(=O)NC12CC(C3CC3)(C1)C2 [Compound I-205, N-{3-cyclopropylbicyclo[1.1.1]pentan-1-yl}-2-[2-(3,6-dihydro-2H-pyran-4-yl)-5-ethyl-6-[(1S,6S)-5-(4-methyl-3,4-dihydro-2H-1,4-benzoxazine-8-carbonyl)-2,5-diazabicyclo[4.2.0]octan-2-yl]-7-oxo-2H,4H,7H-[1,2,3]triazolo[4,5-b]pyridin-4-yl]acetamide]	5 to 50	500 to 2000	–
CCc1c(N2CCN(C(=O)c3ncnc(C)c3O)[C@H]3CC[C@@H]32)c(=O)c2nn(-c3ccnc(OC)c3)nc2n1CC(=O)NC1CC2(C1)CC2F (stereo partly drawn) [Compound I-69, 2-{5-ethyl-6-[(1S,6S)-5-(5-hydroxy-6-methylpyrimidine-4-carbonyl)-2,5-diazabicyclo[4.2.0]octan-2-yl]-2-(2-methoxypyridin-4-yl)-7-oxo-2H,4H,7H-[1,2,3]triazolo[4,5-b]pyridin-4-yl}-N-{1-fluorospiro[2.3]hexan-5-yl}acetamide]	5 to 50	500 to 2000	–
CCc1c(N2CCN(C(=O)c3cccnc3OC(F)F)[C@H]3CC[C@@H]32)c(=O)c2nn(C3=CCOCC3)nc2n1CC(=O)NC12CC(C(C)C)(C1)C2 [Compound I-207, 2-{6-[(1S,6S)-5-[2-(difluoromethoxy)pyridine-3-carbonyl]-2,5-diazabicyclo[4.2.0]octan-2-yl]-2-(3,6-dihydro-2H-pyran-4-yl)-5-ethyl-7-oxo-2H,4H,7H-[1,2,3]triazolo[4,5-b]pyridin-4-yl}-N-[3-(propan-2-yl)bicyclo[1.1.1]pentan-1-yl]acetamide]	5 to 50	500 to 2000	–
CCc1c(N2CCN(C(=O)c3ncncc3OC)[C@H]3CC[C@@H]32)c(=O)c2nn(C3=CCOCC3)nc2n1CC(=O)NC12CC(C(C)C)(C1)C2 [Compound I-167, 2-[2-(3,6-dihydro-2H-pyran-4-yl)-5-ethyl-6-[(1S,6S)-5-(5-methoxypyrimidine-4-carbonyl)-2,5-diazabicyclo[4.2.0]octan-2-yl]-7-oxo-2H,4H,7H-[1,2,3]triazolo[4,5-b]pyridin-4-yl]-N-[3-(propan-2-yl)bicyclo[1.1.1]pentan-1-yl]acetamide]	5 to 50	500 to 2000	–
CCc1c(N2CCN(C(=O)c3ncnc(C)c3O)CC2)c(=O)c2nn(-c3cc(C)n(C)n3)nc2n1CC(=O)Nc1ccc(C(F)(F)F)cc1Cl [Compound I-113, N-[2-chloro-4-(trifluoromethyl)phenyl]-2-[2-(1,5-dimethyl-1H-pyrazol-3-yl)-5-ethyl-6-[4-(5-hydroxy-6-methylpyrimidine-4-carbonyl)piperazin-1-yl]-7-oxo-2H,4H,7H-[1,2,3]triazolo[4,5-b]pyridin-4-yl]acetamide]	5 to 50	≤ 500	–
CCc1c(N2CCN(C(=O)c3c(OC)ncc(C)c3O)CC2)c(=O)c2nn(-c3ccnc(C)c3)nc2n1CC(=O)NC12CC(C(C)C)(C1)C2 [Compound I-130, 2-{5-ethyl-6-[4-(4-hydroxy-2-methoxy-5-methylpyridine-3-carbonyl)piperazin-1-yl]-2-(2-methylpyridin-4-yl)-7-oxo-2H,4H,7H-[1,2,3]triazolo[4,5-b]pyridin-4-yl}-N-[3-(propan-2-yl)bicyclo[1.1.1]pentan-1-yl]acetamide]	5 to 50	≤ 500	–
CCc1c(N2CCN(C(=O)c3c(O)ccc4ncoc34)CC2)c(=O)c2nn(-c3ccnc(OC)c3)nc2n1CC(=O)NC12CC(C(F)(F)F)(C1)C2 [Compound I-150, 2-{5-ethyl-6-[4-(6-hydroxy-1,3-benzoxazole-7-carbonyl)piperazin-1-yl]-2-(2-methoxypyridin-4-yl)-7-oxo-2H,4H,7H-[1,2,3]triazolo[4,5-b]pyridin-4-yl}-N-[3-(trifluoromethyl)bicyclo[1.1.1]pentan-1-yl]acetamide]	5 to 50	≤ 500	–
CCc1c(N2CCN(C(=O)c3ncnc(C)c3O)[C@H]3CC[C@@H]32)c(=O)c2nn(-c3ccc(OC)nc3)nc2n1CC(=O)NC12CC(C(C)C)(C1)C2 [Compound I-156, 2-{5-ethyl-6-[(1S,6S)-5-(5-hydroxy-6-methylpyrimidine-4-carbonyl)-2,5-diazabicyclo[4.2.0]octan-2-yl]-2-(6-methoxypyridin-3-yl)-7-oxo-2H,4H,7H-[1,2,3]triazolo[4,5-b]pyridin-4-yl}-N-[3-(propan-2-yl)bicyclo[1.1.1]pentan-1-yl]acetamide]	5 to 50	≤ 500	–
